The OPERA property sets (Mansouri et al. 2018)

Compared with `Clc1cc2c(Cl)ccc(Cl)c2c(Cl)c1Cl`, `ClC1=C(Cl)[C@]2(Cl)[C@H]3[C@H]([C@@H]4O[C@]4(Cl)[C@@H]3Cl)[C@@]1(Cl)C2(Cl)Cl` (mixture of isomers) is lower in log10 Koa: 9.1 for the first, 8.39 for the second.

Molecule `CC#N` has a log10 Koa of 2.31.

`Clc1cc2c(Cl)ccc(Cl)c2c(Cl)c1Cl` and `CCCCOCCOC(=O)COc1cc(Cl)c(Cl)cc1Cl` are within 0.2 log units of each other in log10 vapour pressure (mmHg): -6 for the first, -5.82 for the second.

Going from `CNC(=O)Oc1cccc2ccccc12` to `CCOC(=O)[C@@H](C)Oc1ccc(Oc2nc3ccc(Cl)cc3o2)cc1`, the log10 vapour pressure (mmHg) falls from -5.87 to -7.52.

Going from `CCCCN(CC)C(=O)SCCC` to `CCC(C)CC`, the log10 vapour pressure (mmHg) rises from -1.05 to 2.28.

First: c1cc2ccc3ccc4ccc5ccc6ccc1c1c2c3c4c5c61
Second: Cc1cc(N)ccc1N=Nc1ccc([N+](=O)[O-])cc1
The log10 vapour pressure (mmHg) of the first is lower: -11.7 for the first, -9.15 for the second.

Going from `CCCOC` to `ClCCOCCCl`, the log10 vapour pressure (mmHg) falls from 2.67 to 0.19.

Compared with `CC#N`, `C#CC=C` is higher in log10 vapour pressure (mmHg): 1.95 for the first, 3.13 for the second.

Compared with `O=c1c2cc(F)ccc2nc(-n2cncn2)n1-c1ccc(Cl)cc1Cl`, `CCOC(=O)C1=NN(c2ccc(Cl)cc2Cl)C(C)(C(=O)OCC)C1` (stereo unspecified) is higher in log10 vapour pressure (mmHg): -10.3 for the first, -7.33 for the second.

Compared with `CC(C)(C)OOC(C)(C)C`, `CCC(C)c1ccc(O)cc1` (stereo unspecified) is lower in log10 vapour pressure (mmHg): 1.4 for the first, -1.43 for the second.

Compared with `Cc1cccc(Br)c1`, `O=C(O)CCC(=O)O` is lower in log10 vapour pressure (mmHg): 0.185 for the first, -6.72 for the second.

Going from `CNC(=O)Oc1cccc2ccccc12` to `O=C1CCc2ccccc21`, the boiling point falls from 315 °C to 243 °C.

Compared with `CCC(C(C)=O)C(C)=O`, `CCC(C)CC` is lower in boiling point: 178 °C for the first, 63.2 °C for the second.

Going from `CCCCN(CC)C(=O)SCCC` to `CCCCCCOC`, the boiling point falls from 202 °C to 126 °C.

Compared with `c1cc2ccc3ccc4ccc5ccc6ccc1c1c2c3c4c5c61`, `Cc1cccc2c1CC=C2` is lower in boiling point: 525 °C for the first, 209 °C for the second.

`COc1ccc(OC)c(C=O)c1` and `CC=Cc1ccc(OC)c(OC)c1` are the same in boiling point: 270 °C for the first, 270 °C for the second.

Compared with `CCCOC`, `ClCCOCCCl` is higher in boiling point: 39.1 °C for the first, 178 °C for the second.

Going from `CC#N` to `C#CC=C`, the boiling point falls from 81.6 °C to 5.1 °C.

Going from `CN1CCCC(CO)C1` (stereo unspecified) to `CC1(C)C2CC3C(C2)C31C`, the boiling point rises from 142 °C to 152 °C.

Going from `ClC1=C(Cl)[C@]2(Cl)[C@H]3[C@H]([C@@H]4O[C@]4(Cl)[C@@H]3Cl)[C@@]1(Cl)C2(Cl)Cl` (mixture of isomers) to `O=[N+]([O-])c1cccc(Cl)c1Cl`, the boiling point falls from 353 °C to 258 °C.

Going from `CCCCCCCCCCCCCC=O` to `C=CCOC=O`, the boiling point falls from 260 °C to 83.6 °C.

Compared with `C=CCC(C)(C)C`, `CC(C)(C)OOC(C)(C)C` is higher in boiling point: 72.5 °C for the first, 111 °C for the second.

First: BrC=C(Br)Br
Second: Cc1cccc(Br)c1
The boiling point of the first is lower: 164 °C for the first, 184 °C for the second.

First: COC(=O)C=C(Cl)C(=O)OC
Second: CC(C)COC(C)OCC(C)C
The boiling point of the first is higher: 224 °C for the first, 171 °C for the second.

First: Cc1cccc(N)n1
Second: CCC(C)c1ccc(O)cc1 (stereo unspecified)
The boiling point of the first is lower: 208 °C for the first, 241 °C for the second.

First: CNC(=O)Oc1cccc2ccccc12
Second: CCCCN(CC)C(=O)SCCC
The log10 Koc (L/kg) of the first is lower: 2.4 for the first, 2.8 for the second.

Going from `O=C1C(Cl)=C(Cl)C(=O)C(Cl)=C1Cl` to `ClCCOCCCl`, the log10 Koc (L/kg) falls from 2.32 to 1.88.

Going from `CNC(=O)Oc1cccc2ccccc12` to `OCCOc1cccc2ccccc12`, the melting point falls from 145 °C to 45 °C.

Compared with `C[C@H]1/C(=C\C(=O)OCCN(C)C)CC[C@H]2[C@H]1C(=O)C[C@H]1C(C)(C)[C@@H](O)CC[C@]21C`, `O=C1CC[C@@]2(O)[C@H]3Cc4ccc(O)c5c4[C@@]2(CCN3CC2CC2)[C@H]1O5` is higher in melting point: 142 °C for the first, 169 °C for the second.

Going from `CCCCCCCCCCCCCCCCCC(=O)OCCCCC` to `CCCCCCCCCCCCCCCC(=O)OCCC`, the melting point falls from 30 °C to 20.4 °C.

Going from `C=C(Br)c1ccccc1` to `C[C@@H]([C@H](O)c1ccccc1)N(C)C`, the melting point rises from -44 °C to 87.5 °C.

First: CCCCN(CC)C(=O)SCCC
Second: CCC(C)CC
The melting point of the first is higher: -22 °C for the first, -163 °C for the second.

First: c1cc2ccc3ccc4ccc5ccc6ccc1c1c2c3c4c5c61
Second: Oc1ccc2cc(Cl)ccc2c1
The melting point of the first is higher: 437 °C for the first, 116 °C for the second.

First: CCCCCCCCCCCCCCCCCC(=O)Oc1ccccc1
Second: CCCCCCCCCCCCCC=O
The melting point of the first is higher: 52 °C for the first, 20.5 °C for the second.

Going from `COc1ccc(OC)c(C=O)c1` to `CC=Cc1ccc(OC)c(OC)c1`, the melting point falls from 52 °C to 18 °C.

First: Cc1ccc([N+](=O)[O-])c(F)c1
Second: O=[N+]([O-])c1cccc(Cl)c1Cl
The melting point of the first is lower: 53.2 °C for the first, 61.5 °C for the second.

Compared with `C=C(C)CC1(CC)C(=O)NC(=S)NC1=O`, `CCC1(c2ccccc2)C(=O)NC(=O)NC1=O` is higher in melting point: 160 °C for the first, 174 °C for the second.

`CCOC(=O)c1cn2nc(OP(=S)(OCC)OCC)cc2nc1C` and `CCOC(=O)C1=NN(c2ccc(Cl)cc2Cl)C(C)(C(=O)OCC)C1` (stereo unspecified) are the same in melting point: 51 °C for the first, 51 °C for the second.

Going from `CC(=O)NCC(=O)O` to `O=C(O)CCC(=O)O`, the melting point falls from 206 °C to 188 °C.

Going from `O=NN1CCC[C@H]1c1cccnc1` to `O=C1CCc2ccccc21`, the melting point falls from 47 °C to 42 °C.

Compared with `O=C(C(Cl)Cl)N(CCO)Cc1ccc(Oc2ccc([N+](=O)[O-])cc2)cc1`, `CC(=O)Oc1ccc(OC(C)=O)cc1` is lower in melting point: 136 °C for the first, 124 °C for the second.

Compared with `CC#N`, `C=CCC(C)(C)C` is lower in melting point: -43.8 °C for the first, -137 °C for the second.

First: ClC1=C(Cl)[C@]2(Cl)[C@H]3[C@H]([C@@H]4O[C@]4(Cl)[C@@H]3Cl)[C@@]1(Cl)C2(Cl)Cl (mixture of isomers)
Second: O=C1C(Cl)=C(Cl)C(=O)C(Cl)=C1Cl
The melting point of the first is lower: 144 °C for the first, 290 °C for the second.

Going from `CCOC(=O)C=CC(=O)O` to `CCCCNc1cc(C(=O)O)cc(S(N)(=O)=O)c1Oc1ccccc1`, the melting point rises from 70 °C to 230 °C.

Compared with `Oc1ccc(/C=C/c2cc(O)cc(O)c2)cc1`, `CCC(C)c1ccc(O)cc1` (stereo unspecified) is lower in melting point: 254 °C for the first, 61.5 °C for the second.

First: CC1(C)C2CC3C(C2)C31C
Second: O=[N+]([O-])O[C@H]1CO[C@H]2[C@@H]1OC[C@H]2O[N+](=O)[O-]
The melting point of the first is lower: 67.5 °C for the first, 70 °C for the second.

First: O=c1c2cc(F)ccc2nc(-n2cncn2)n1-c1ccc(Cl)cc1Cl
Second: O=C(Nc1ccc(Cl)cc1)Nc1ccc(Cl)c(Cl)c1
The melting point of the first is lower: 192 °C for the first, 256 °C for the second.

Compared with `O=[N+]([O-])c1ccc(S(=O)(=O)O)c([N+](=O)[O-])c1`, `CNP(=O)(OC)Oc1ccc(C(C)(C)C)cc1Cl` (stereo unspecified) is lower in melting point: 108 °C for the first, 60 °C for the second.

Going from `CC(C)(C)OOC(C)(C)C` to `CC(C)(CO)[N+](=O)[O-]`, the melting point rises from -40 °C to 89.5 °C.

Compared with `O=C(c1ccc(Cl)cc1)c1ccccc1Cl`, `Cc1cccc(Br)c1` is lower in melting point: 67 °C for the first, -39.8 °C for the second.

First: Cc1cccc(N)n1
Second: IC(I)=C(I)I
The melting point of the first is lower: 41 °C for the first, 187 °C for the second.

With `ClCCOCCCl` the melting point was -51.9 °C.

In the case of `CNC(=O)Oc1cccc2ccccc12`, the ready biodegradability is reported as “readily biodegradable”.
For `Clc1ccc(C(Cl)c2ccccc2)cc1` (stereo unspecified), the ready biodegradability was “not readily biodegradable”.
For `C=C(Br)c1ccccc1`, the ready biodegradability was “not readily biodegradable”.
In the case of `CCCCN(CC)C(=O)SCCC`, the ready biodegradability is reported as “readily biodegradable”.
For `CC#N`, the ready biodegradability was “readily biodegradable”.
In the case of `CCC(C)c1ccc(O)cc1` (stereo unspecified), the ready biodegradability is reported as “not readily biodegradable”.
For `ClCCOCCCl`, the ready biodegradability was “not readily biodegradable”.
For `O=[N+]([O-])c1cccc(Cl)c1Cl`, the ready biodegradability was “not readily biodegradable”.
With `CCC1(c2ccccc2)C(=O)NC(=O)NC1=O` the ready biodegradability was “not readily biodegradable”.
With `O=C(Nc1ccc(Cl)cc1)Nc1ccc(Cl)c(Cl)c1` the ready biodegradability was “not readily biodegradable”.
With `O=C(O)CCC(=O)O` the ready biodegradability was “readily biodegradable”.

Work on `c1cc2ccc3ccc4ccc5ccc6ccc1c1c2c3c4c5c61` yielded a log10 biodegradation half-life (days) of 2.87.

Compared with `CC#N`, `O=c1c2cc(F)ccc2nc(-n2cncn2)n1-c1ccc(Cl)cc1Cl` is lower in log10 Henry constant (atm·m³/mol): -4.46 for the first, -10.7 for the second.
